Reference: ChEMBL document CHEMBL1201862, “PubChem BioAssay data set” (2004)
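Each compound was tested at five concentrations against cells in 96-well plates for 48 hours. GI50 is the concentration that inhibits growth by half.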 Active and inactive are the calls of the source. No stated cut-off is given here; in the data, active = GI50 up to about 1.1 µM and inactive = higher.

Legend:
Experiment in all cases: DTP human tumour cell line panel, 48 h
IGROV-1 = test system: IGROV-1
SK-MEL-2 = test system: SK-MEL-2
RPMI-8226 = test system: RPMI-8226
Malme-3M = test system: Malme-3M
OVCAR-5 = test system: OVCAR-5
NCI-H23 = test system: NCI-H23
HCT-116 = test system: HCT-116
RXF 393 = test system: RXF 393
HT-29 = test system: HT-29
SF-295 = test system: SF-295
Hs-578T = test system: Hs-578T
ACHN = test system: ACHN
SW-620 = test system: SW-620
OVCAR-4 = test system: OVCAR-4
786-0 = test system: 786-0
UACC-257 = test system: UACC-257
KM12 = test system: KM12
NCI-H226 = test system: NCI-H226
MDA-N = test system: MDA-N

Measured: GI50

O=c1c2ccccc2nnn1-c1n[nH]c2ccccc12
inactive: IGROV-1 > 100 µM | SK-MEL-2 > 100 µM | RPMI-8226 > 100 µM | Malme-3M > 100 µM | OVCAR-5 13.9 µM | NCI-H23 > 100 µM | HCT-116 > 100 µM | RXF 393 > 100 µM | HT-29 63.4 µM | SF-295 > 100 µM | Hs-578T > 100 µM | ACHN > 100 µM | SW-620 > 100 µM | OVCAR-4 > 100 µM | 786-0 > 100 µM | UACC-257 > 100 µM | KM12 > 100 µM

O=C(CN1CCCC1)Nc1ccc2c(c1)C1Oc3ccccc3CC1CO2 (stereo unspecified)
inactive: IGROV-1 36.6 µM | SK-MEL-2 23.9 µM | RPMI-8226 25.1 µM | Malme-3M 16.7 µM | OVCAR-5 30.9 µM | NCI-H23 38.5 µM | HCT-116 33 µM | NCI-H226 > 100 µM | HT-29 > 10 µM | SF-295 20.5 µM | MDA-N 31.2 µM | SW-620 17.3 µM | 786-0 24.7 µM | UACC-257 21.2 µM | KM12 43.4 µM

COC(=O)CCC12CCC(O1)c1ccccc12 (stereo unspecified)
inactive: IGROV-1 > 100 µM | RPMI-8226 > 100 µM | OVCAR-5 > 100 µM | NCI-H23 > 100 µM | HCT-116 > 100 µM | NCI-H226 > 100 µM | RXF 393 > 100 µM | HT-29 > 100 µM | SF-295 > 100 µM | ACHN > 100 µM | MDA-N > 100 µM | SW-620 > 100 µM | OVCAR-4 > 100 µM | 786-0 > 100 µM | UACC-257 > 100 µM | KM12 > 100 µM

COc1ccc(C23OCC(Cc4cc(OC)c(OC)cc42)C3COC(C)=O)cc1OC (stereo unspecified)
inactive: SK-MEL-2 > 100 µM | RPMI-8226 > 100 µM | Malme-3M > 100 µM | OVCAR-5 > 100 µM | NCI-H23 56.1 µM | HCT-116 > 100 µM | NCI-H226 5.66 µM | RXF 393 > 100 µM | HT-29 > 100 µM | SF-295 > 100 µM | ACHN > 100 µM | SW-620 > 100 µM | OVCAR-4 > 100 µM | 786-0 > 100 µM | KM12 > 100 µM

Cc1cc(Br)c(N2C3=C(CC4=C2CCCC4=O)C(=O)CCC3)c(Br)c1
inactive: IGROV-1 > 100 µM | RPMI-8226 27.4 µM | OVCAR-5 > 100 µM | NCI-H23 50.9 µM | NCI-H226 72.1 µM | RXF 393 25.8 µM | HT-29 42.3 µM | Hs-578T > 100 µM | ACHN 46.8 µM | SW-620 31.6 µM | OVCAR-4 93.5 µM | 786-0 96.6 µM | KM12 62.5 µM

COc1cccc(C2c3cc4c(cc3OC(N3CCCC3)C2C)OCO4)c1 (stereo unspecified)
inactive: IGROV-1 6.32 µM | SK-MEL-2 5.48 µM | RPMI-8226 4.85 µM | OVCAR-5 24.9 µM | NCI-H23 22.8 µM | HCT-116 4.76 µM | HT-29 4.58 µM | SF-295 3.04 µM | Hs-578T 8.3 µM | ACHN 8.79 µM | MDA-N 1.79 µM | SW-620 4.55 µM | 786-0 9.62 µM | UACC-257 12.1 µM | KM12 6.01 µM

CCOC1=C/C(=N\Nc2ccc([N+](=O)[O-])cc2)CCC1
inactive: IGROV-1 15 µM | SK-MEL-2 21.5 µM | RPMI-8226 14.9 µM | Malme-3M 96.2 µM | OVCAR-5 42.4 µM | NCI-H23 18.5 µM | HCT-116 41.7 µM | NCI-H226 41.9 µM | RXF 393 21.9 µM | HT-29 14.6 µM | SF-295 13.1 µM | Hs-578T 38.5 µM | ACHN 12.3 µM | SW-620 14.8 µM | OVCAR-4 13.8 µM | 786-0 32.4 µM | UACC-257 63.8 µM | KM12 14.3 µM

CC1C2=CC=C(O2)C(C)(C)C2=CC=C(O2)C(C)(C)C2=CC=C(O2)C(C)(C)C2=CC=C1O2
inactive: IGROV-1 > 100 µM | SK-MEL-2 > 100 µM | Malme-3M > 100 µM | OVCAR-5 > 100 µM | NCI-H23 > 100 µM | HCT-116 > 100 µM | NCI-H226 > 100 µM | RXF 393 > 100 µM | HT-29 > 100 µM | SF-295 > 100 µM | ACHN > 100 µM | SW-620 > 100 µM | OVCAR-4 > 100 µM | 786-0 > 100 µM | UACC-257 > 100 µM | KM12 > 100 µM

CC(C)(/C=N\O)NO
inactive: SK-MEL-2 > 10 µM | RPMI-8226 > 10 µM | Malme-3M > 10 µM | OVCAR-5 > 10 µM | NCI-H23 > 10 µM | HCT-116 > 10 µM | NCI-H226 > 10 µM | RXF 393 > 10 µM | HT-29 > 10 µM | SF-295 > 10 µM | ACHN > 10 µM | MDA-N > 10 µM | SW-620 > 10 µM | OVCAR-4 > 10 µM | 786-0 > 10 µM | UACC-257 > 10 µM | KM12 > 10 µM

Cc1ccc([S+]([O-])C[C@@]2(C(F)F)NC(=O)NC2=O)cc1 (stereo partly specified)
inactive: IGROV-1 > 100 µM | SK-MEL-2 > 100 µM | RPMI-8226 > 100 µM | Malme-3M > 100 µM | OVCAR-5 > 100 µM | NCI-H23 > 100 µM | HCT-116 > 100 µM | NCI-H226 > 100 µM | RXF 393 > 100 µM | HT-29 > 100 µM | SF-295 > 100 µM | Hs-578T > 100 µM | ACHN > 100 µM | SW-620 > 100 µM | OVCAR-4 > 100 µM | 786-0 > 100 µM | UACC-257 > 100 µM | KM12 > 100 µM

Cc1cc(C(O)CCCc2ccccc2)cc(C)c1O (stereo unspecified)
inactive: IGROV-1 83.6 µM | SK-MEL-2 33.8 µM | RPMI-8226 24.1 µM | Malme-3M 18.9 µM | OVCAR-5 43.9 µM | NCI-H23 39.8 µM | NCI-H226 24 µM | RXF 393 12 µM | SF-295 28.8 µM | ACHN 24.2 µM | SW-620 75.7 µM | 786-0 40.6 µM | UACC-257 25.8 µM | KM12 29.6 µM

Clc1sc(Cl)c2c1[C@H](Cl)C[C@@H]2Cl
inactive: IGROV-1 17.4 µM | SK-MEL-2 22.5 µM | Malme-3M 15 µM | OVCAR-5 29.2 µM | NCI-H23 24.4 µM | HCT-116 4.85 µM | NCI-H226 19.8 µM | HT-29 32.7 µM | SF-295 35.3 µM | Hs-578T 15.9 µM | ACHN 33.2 µM | MDA-N 20.6 µM | SW-620 3.87 µM | OVCAR-4 23.6 µM | 786-0 19.6 µM | UACC-257 24.3 µM | KM12 25.6 µM
